# Literature values as cited in patent publication US20250257354A1, “METHODS AND COMPOSITIONS RELATED TO TRNA THERAPEUTICS FOR TREATING VISION LOSS” (UNIVERSITY OF IOWA RESEARCH FOUNDATION, priority 2022, published 2025).
# Conditions: ACT DMD Phase 3 NCT01826487; ACT CF NCT02139306
structure (smiles),measurement,value
O=C(O)c1cccc(-c2noc(-c3ccccc3F)n2)c1 [Ataluren],efficacy in patient populations,unexpectedly low efficacy
